Test results as given in the NIST ThermoML archive (doi:10.1021/je020153x).
± gives the expanded uncertainty stated by the source.

Test: mn = molality of the nth substance listed, in mol/kg
Details: 101.3 kPa, Liquid; for viscosity: Capillary tube (Ostwald / Ubbelohde) method; for mass density: Vibrating tube method

O [water] + [Cl-].[Na+]
m2 = 0
Details	viscosity [mPa·s]
293.15 K	1.002 ± 0.009
303.15 K	0.797 ± 0.007
313.15 K	0.653 ± 0.006

O=C[C@H](O)[C@@H](O)[C@H](O)[C@H](O)CO [D-glucose] + O
Details	mass density, 293.15 K [kg/m3]	mass density, 303.15 K [kg/m3]	mass density, 313.15 K [kg/m3]	viscosity, 293.15 K [mPa·s]	viscosity, 303.15 K [mPa·s]	viscosity, 313.15 K [mPa·s]
m1 = 0.5	1030.7 ± 0.2	1027.7 ± 0.2	1024 ± 0.2	1.256 ± 0.011	0.988 ± 0.009	0.801 ± 0.007
m1 = 1	1059.7 ± 0.2	1056.4 ± 0.2	1052.4 ± 0.2	1.587 ± 0.014	1.231 ± 0.011	0.985 ± 0.009
m1 = 1.5	1085.4 ± 0.3	1081.8 ± 0.3	1077.6 ± 0.2	1.993 ± 0.018	1.523 ± 0.014	1.205 ± 0.011
m1 = 2	1108.8 ± 0.3	1105 ± 0.3	1100.6 ± 0.3	2.512 ± 0.023	1.89 ± 0.018	1.475 ± 0.014
m1 = 2.5	1129.8 ± 0.3	1125.7 ± 0.3	1121.2 ± 0.3	3.159 ± 0.029	2.341 ± 0.022	1.804 ± 0.017
m1 = 3	1148.8 ± 0.3	1144.6 ± 0.3	1139.9 ± 0.3	3.947 ± 0.037	2.873 ± 0.028	2.182 ± 0.021
m1 = 3.5	1166.3 ± 0.3	1161.9 ± 0.3	1157.1 ± 0.3	4.96 ± 0.046	3.553 ± 0.035	2.66 ± 0.026
m1 = 4	1182.2 ± 0.3	1177.7 ± 0.3	1172.7 ± 0.3	6.131 ± 0.056	4.309 ± 0.043	3.175 ± 0.033

[Cl-].[Na+] [sodium chloride] + O
Details	mass density, 293.15 K [kg/m3]	mass density, 303.15 K [kg/m3]	mass density, 313.15 K [kg/m3]	viscosity, 293.15 K [mPa·s]	viscosity, 303.15 K [mPa·s]	viscosity, 313.15 K [mPa·s]
m1 = 0.5	1018.6 ± 0.2	1015.7 ± 0.2	1011.9 ± 0.2	1.041 ± 0.009	0.835 ± 0.008	0.688 ± 0.007
m1 = 1	1037.8 ± 0.2	1034.4 ± 0.2	1030.4 ± 0.2	1.087 ± 0.01	0.873 ± 0.008	0.722 ± 0.007
m1 = 1.5	1056.3 ± 0.2	1052.6 ± 0.2	1048.4 ± 0.2	1.138 ± 0.01	0.918 ± 0.008	0.76 ± 0.007
m1 = 2	1074.1 ± 0.2	1070.1 ± 0.2	1065.7 ± 0.2	1.196 ± 0.01	0.966 ± 0.009	0.802 ± 0.007
m1 = 2.5	1091.4 ± 0.2	1087.2 ± 0.2	1082.5 ± 0.2	1.264 ± 0.011	1.021 ± 0.009	0.848 ± 0.008
m1 = 3	1107.8 ± 0.2	1103.4 ± 0.2	1098.6 ± 0.2	1.333 ± 0.012	1.077 ± 0.01	0.895 ± 0.008
m1 = 3.5	1123.9 ± 0.3	1119.2 ± 0.3	1114.3 ± 0.3	1.411 ± 0.012	1.14 ± 0.01	0.945 ± 0.009
m1 = 4	1139.2 ± 0.3	1134.4 ± 0.3	1129.3 ± 0.3	1.499 ± 0.013	1.208 ± 0.011	1 ± 0.009

O [water] + O=C[C@H](O)[C@@H](O)[C@H](O)[C@H](O)CO
m2 = 0
Details	viscosity [mPa·s]
293.15 K	1.002 ± 0.009
303.15 K	0.797 ± 0.007
313.15 K	0.653 ± 0.006
